Laboratory results taken from publication PMC3684613 (PLoS ONE, 2013).
pEC50: −log10 of the molar value. Like-named read-outs stand apart in the source and are kept apart here.

Assays:
P. falciparum 3D7 [1] = tested on: P. falciparum 3D7; design: method as in ChEMBL-NTD; conditions: ref ChEMBL-NTD, cited from earlier work
P. falciparum 3D7 [2] = assay: DAPI stain fluorescent high content imaging assay, P. falciparum 3D7 (confirmatory screen, Avery); conditions: for pEC50 / inhibition of growth at 5 µM: Plasmodium falciparum; for pEC50: 3D7, read-out: EC50_nM; for inhibition of growth at 5 µM: 3D7, read-out: percent_inh @ 5 uM
[3] = original screening data, source (GSK, GNF, StJude), several values separated by ';' in order of sources
[4] = values follow the order of the source (GNF; GSK; StJude)

Row | Structure (SMILES) | pEC50 (P. falciparum 3D7 [2]) | inhibition of growth at 5 µM (P. falciparum 3D7 [2]) | pEC50 (P. falciparum 3D7 [1]; [3]) | further results
1 | Cc1[nH]c(-c2ccc(F)cc2)cc1C(=O)NC1CCN(Cc2ccccc2)CC1 [MMV019738] | 6.11 | 99% | – | pEC50 (P. falciparum 3D7 [1]; source GSK): 5.95
2 | Cc1ccc(C)c(Cn2c(N3CCC(C(=O)NCc4cccs4)CC3)nc3ccccc32)c1 [MMV019741] | 5.88 | 97% | – | pEC50 (P. falciparum 3D7 [1]; source GSK (TCMDC ids)): 6.03
3 | Cc1ccc(Cl)cc1N1CCN(CCCNC(=O)C2CCN(c3nc4ccccc4[nH]3)CC2)CC1 [MMV019746] | 5.88 | 97% | – | pEC50 (P. falciparum 3D7 [1]; source GSK): 6.05
4 | COc1ccc(C(=O)Nc2ccc3nc(N4CCCCC4)cc(C)c3c2)cc1OC [MMV019758] | – | 76% | – | pEC50 (P. falciparum 3D7 [1]; source GSK): 6.00
5 | COc1cccc(C(=O)Nc2ccc(-c3nc4ccccc4[nH]3)cc2)c1 [MMV019762] | – | 83% | 6.10 | –
6 | Cc1cc(C)c2nc(N3CCC(C(=O)NCCCN4CCC(N5CCCCC5)CC4)CC3)sc2c1 [MMV019780] | 6.16 | 98% | – | pEC50 (P. falciparum 3D7 [1]; source GSK): 6.08
7 | Fc1ccc2[nH]c3c(NCCCN4CCOCC4)ncnc3c2c1 [MMV019871] | 6.46 | 98% | – | pEC50 (P. falciparum 3D7 [1]; source GSK (TCMDC id)): 6.15
8 | O=C(NC1CCN(Cc2ccccc2)CC1)c1cc(C(=O)NC2CCN(Cc3ccccc3)CC2)cc(C(=O)NC2CCN(Cc3ccccc3)CC2)c1 [MMV019881] | 6.19 | 98% | – | pEC50 (P. falciparum 3D7 [1]; [4]): 5.98
9 | Clc1cc(Br)ccc1-c1ccc(CNCC2CCNCC2)o1 [MMV019918] | 6.10 | 96% | 5.82 | –
10 | O=C(NCCCN1CCC(N2CCCCC2)CC1)C1=Cc2cc(Br)ccc2OC1 [MMV019995] | 6.25 | 99% | – | pEC50 (P. falciparum 3D7 [1]; source GSK (TCMDC ids)): 6.07
11 | Cc1cc(N(C)C)nc(Nc2ccc(NC(=O)Nc3ccccc3)cc2)n1 [MMV020243] | 5.94 | – | – | pEC50 (P. falciparum 3D7 [1]; [4]): 6.87
12 | O=C(NC1CCN(Cc2ccccc2)CC1)c1cc(-c2ccncc2)nc2ccc(Cl)cc12 [MMV020275] | 5.99 | 92% | 6.04 | –
13 | COc1ccc(-c2cn3c(C(=O)Nc4ccccc4Cl)c(-c4ccccc4)c4c3n2CCCC4)cc1 [MMV020403] | – | 80% | – | pEC50 (P. falciparum 3D7 [1]; [4]): 6.10
14 | CCn1c(CN2CCN(Cc3ccccc3)CC2)nc2cc(NC(=O)c3cccs3)ccc21 [MMV020439] | 6.29 | 97% | – | pEC50 (P. falciparum 3D7 [1]; source GSK (TCMDC id)): 6.40
15 | O=C(NC1CCN(Cc2ccccc2)CC1)c1cc(-c2cccnc2)nc2ccc(Cl)cc12 [MMV020490] | 6.00 | 91% | 6.12 | –
16 | CC1CN(C(=O)c2sc3ccccc3c2Cl)CC(C)O1 (stereo not shown) [MMV020492] | 7.59 | 95% | – | pEC50 (P. falciparum 3D7 [1]; source GSK (TCMDC id)): 7.06
17 | CNCCCNc1ccnc2cc(Cl)ccc12 [MMV020500] | 7.09 | 98% | – | pEC50 (P. falciparum 3D7 [1]; source GSK (TCMDC id)): 7.20
18 | CN(C)CCCNCc1ccc(-c2ccc(F)c(Cl)c2)o1 [MMV020505] | 6.06 | 96% | – | pEC50 (P. falciparum 3D7 [1]; source GSK (TCMDC ids)): 6.10
19 | CCN1CCN(Cc2ccc(NC(=O)c3cc4ccc5cccnc5c4[nH]3)cc2)CC1 [MMV020548] | 6.44 | 70% | – | pEC50 (P. falciparum 3D7 [1]; source GSK (TCMDC id)): 6.07
20 | CC1CCN(Cc2ccc(NC(=O)c3cc4ccc5cccnc5c4[nH]3)cc2)CC1 [MMV020549] | 6.56 | 97% | – | pEC50 (P. falciparum 3D7 [1]; source GSK (TCMDC id)): 6.11
21 | O=C(Nc1ccc(CN2CCOCC2)cc1)c1ccc(-c2cc(Cl)ccc2Cl)o1 [MMV020651] | 5.71 | 97% | 6.21 | –
22 | CCC(O)c1ccc(Br)cc1NC(=O)c1cccc(Cl)c1 (stereo not shown) [MMV020654] | 6.19 | 97% | 5.99 | –
23 | COc1ccc(-c2nonc2NC(=O)c2cccc(Cl)c2)cc1OC [MMV020660] | – | – | 6.06 | % inh. At 2.5 uM (P. falciparum 3D7 [2]; 2.5 uM (Comment column; solubility issue at 5 uM)): 97%
24 | CC(=O)Nc1nnc(SCc2c(C)cc(C(C)(C)C)cc2C)s1 [MMV020700] | 6.06 | 96% | 6.15 | –
